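Interpolation was linear, between the two tested concentrations surrounding the appropriate level; five concentrations were tested over 48 hours in 96-well plates. GI50 = concentration required for 50% inhibition of growth.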 Activity calls are given as the source filed them. No stated cut-off is given here; in the data, active = GI50 up to about 1.1 µM and inactive = higher.
What was measured:
Experiment in all cases: growth of human tumour cells (NCI), 48 h
SW-620 = system: SW-620
M14 = system: M14
MDA-MB-231 = system: MDA-MB-231
NCI-H23 = system: NCI-H23
COLO 205 = system: COLO 205
A549 = system: A549
HCC 2998 = system: HCC 2998
CCRF-CEM = system: CCRF-CEM
HCT-15 = system: HCT-15
K562 = system: K562
SN12C = system: SN12C
SF-268 = system: SF-268
Malme-3M = system: Malme-3M
UACC-62 = system: UACC-62
BT-549 = system: BT-549
SK-MEL-28 = system: SK-MEL-28
T47D = system: T47D
RPMI-8226 = system: RPMI-8226
SF-295 = system: SF-295
DU-145 = system: DU-145
EKVX = system: EKVX
U-251 = system: U-251
OVCAR-5 = system: OVCAR-5
LOX IMVI = system: LOX IMVI
ACHN = system: ACHN
HT-29 = system: HT-29
SF-539 = system: SF-539
MCF7 = system: MCF7
RXF 393 = system: RXF 393
A498 = system: A498
TK-10 = system: TK-10
NCI-H522 = system: NCI-H522
OVCAR-8 = system: OVCAR-8
HOP-62 = system: HOP-62
PC-3 = system: PC-3
MDA-N = system: MDA-N
IGROV-1 = system: IGROV-1
SK-OV-3 = system: SK-OV-3
MDA-MB-435 = system: MDA-MB-435
HL-60 = system: HL-60
786-0 = system: 786-0
MOLT-4 = system: MOLT-4
SNB-19 = system: SNB-19
UACC-257 = system: UACC-257
KM12 = system: KM12
HOP-92 = system: HOP-92
HCT-116 = system: HCT-116
OVCAR-3 = system: OVCAR-3
NCI/ADR-RES = system: NCI/ADR-RES
NCI-H460 = system: NCI-H460
SK-MEL-2 = system: SK-MEL-2
Hs-578T = system: Hs-578T
SNB-75 = system: SNB-75
OVCAR-4 = system: OVCAR-4
CAKI-1 = system: CAKI-1
SK-MEL-5 = system: SK-MEL-5
UO-31 = system: UO-31
NCI-H226 = system: NCI-H226

Structure (SMILES): O=C(N/N=C(COc1ccccc1Cl)\N=C\c1ccncc1)c1ccncc1
- GI50 (SW-620): > 100 µM (inactive)
- GI50 (M14): > 100 µM (inactive)
- GI50 (MDA-MB-231): > 100 µM (inactive)
- GI50 (NCI-H23): > 100 µM (inactive)
- GI50 (COLO 205): > 100 µM (inactive)
- GI50 (A549): > 100 µM (inactive)
- GI50 (HCC 2998): > 100 µM (inactive)
- GI50 (CCRF-CEM): > 100 µM (inactive)
- GI50 (HCT-15): > 100 µM
- GI50 (K562): > 100 µM (inactive)
- GI50 (SN12C): > 100 µM (inactive)
- GI50 (SF-268): > 100 µM (inactive)
- GI50 (Malme-3M): > 100 µM (inactive)
- GI50 (UACC-62): > 100 µM (inactive)
- GI50 (BT-549): > 100 µM (inactive)
- GI50 (SK-MEL-28): > 100 µM (inactive)
- GI50 (T47D): > 100 µM (inactive)
- GI50 (RPMI-8226): > 100 µM (inactive)
- GI50 (SF-295): > 100 µM (inactive)
- GI50 (DU-145): > 100 µM (inactive)
- GI50 (EKVX): > 100 µM (inactive)
- GI50 (U-251): > 100 µM (inactive)
- GI50 (OVCAR-5): > 100 µM (inactive)
- GI50 (LOX IMVI): > 100 µM (inactive)
- GI50 (ACHN): > 100 µM (inactive)
- GI50 (HT-29): > 100 µM (inactive)
- GI50 (SF-539): > 100 µM (inactive)
- GI50 (MCF7): > 100 µM (inactive)
- GI50 (RXF 393): > 100 µM (inactive)
- GI50 (A498): > 100 µM (inactive)
- GI50 (TK-10): > 100 µM (inactive)
- GI50 (NCI-H522): > 100 µM (inactive)
- GI50 (OVCAR-8): > 100 µM (inactive)
- GI50 (HOP-62): > 100 µM (inactive)
- GI50 (PC-3): > 100 µM (inactive)
- GI50 (MDA-N): > 100 µM (inactive)
- GI50 (IGROV-1): > 100 µM (inactive)
- GI50 (SK-OV-3): > 100 µM (inactive)
- GI50 (MDA-MB-435): > 100 µM (inactive)
- GI50 (HL-60): > 100 µM (inactive)
- GI50 (786-0): > 100 µM (inactive)
- GI50 (MOLT-4): 61.1 µM (inactive)
- GI50 (SNB-19): > 100 µM (inactive)
- GI50 (UACC-257): > 100 µM (inactive)
- GI50 (KM12): > 100 µM (inactive)
- GI50 (HOP-92): > 100 µM (inactive)
- GI50 (HCT-116): > 100 µM (inactive)
- GI50 (OVCAR-3): > 100 µM (inactive)
- GI50 (NCI/ADR-RES): > 100 µM (inactive)
- GI50 (NCI-H460): > 100 µM (inactive)
- GI50 (SK-MEL-2): > 100 µM (inactive)
- GI50 (Hs-578T): > 100 µM (inactive)
- GI50 (SNB-75): 15.9 µM (inactive)
- GI50 (OVCAR-4): > 100 µM (inactive)
- GI50 (CAKI-1): > 100 µM (inactive)

Structure (SMILES): Cc1cccc(C(C)(C)C)c1NC(=O)/C(Cc1nc2ccc([N+](=O)[O-])cc2nc1O)=N\NC(=O)C[N+](C)(C)C
- GI50 (SW-620): 65.8 µM (inactive)
- GI50 (M14): > 100 µM (inactive)
- GI50 (MDA-MB-231): > 100 µM (inactive)
- GI50 (NCI-H23): > 100 µM (inactive)
- GI50 (COLO 205): 71.8 µM (inactive)
- GI50 (A549): > 100 µM (inactive)
- GI50 (HCC 2998): > 100 µM (inactive)
- GI50 (HCT-15): > 100 µM
- GI50 (K562): > 100 µM (inactive)
- GI50 (SN12C): > 100 µM (inactive)
- GI50 (SF-268): > 100 µM (inactive)
- GI50 (Malme-3M): > 100 µM (inactive)
- GI50 (UACC-62): > 100 µM (inactive)
- GI50 (BT-549): 38.5 µM (inactive)
- GI50 (SK-MEL-28): > 100 µM (inactive)
- GI50 (T47D): 53.5 µM (inactive)
- GI50 (RPMI-8226): 84.5 µM (inactive)
- GI50 (SF-295): > 100 µM (inactive)
- GI50 (DU-145): > 100 µM (inactive)
- GI50 (EKVX): > 100 µM (inactive)
- GI50 (U-251): > 100 µM (inactive)
- GI50 (OVCAR-5): > 100 µM (inactive)
- GI50 (LOX IMVI): 51.3 µM (inactive)
- GI50 (ACHN): > 100 µM (inactive)
- GI50 (HT-29): > 100 µM (inactive)
- GI50 (SK-MEL-5): > 100 µM (inactive)
- GI50 (SF-539): > 100 µM (inactive)
- GI50 (MCF7): 74.6 µM (inactive)
- GI50 (UO-31): 37.8 µM (inactive)
- GI50 (A498): 60.7 µM (inactive)
- GI50 (NCI-H522): 17.4 µM (inactive)
- GI50 (OVCAR-8): > 100 µM (inactive)
- GI50 (PC-3): 62.5 µM (inactive)
- GI50 (MDA-N): > 100 µM (inactive)
- GI50 (IGROV-1): > 100 µM (inactive)
- GI50 (SK-OV-3): > 100 µM (inactive)
- GI50 (MDA-MB-435): > 100 µM (inactive)
- GI50 (HL-60): > 100 µM (inactive)
- GI50 (786-0): > 100 µM (inactive)
- GI50 (NCI-H226): > 100 µM (inactive)
- GI50 (MOLT-4): 38.5 µM (inactive)
- GI50 (SNB-19): > 100 µM (inactive)
- GI50 (UACC-257): > 100 µM (inactive)
- GI50 (KM12): 47.1 µM (inactive)
- GI50 (HOP-92): 47.2 µM (inactive)
- GI50 (HCT-116): > 100 µM (inactive)
- GI50 (OVCAR-3): 52 µM (inactive)
- GI50 (NCI/ADR-RES): 60.5 µM (inactive)
- GI50 (NCI-H460): > 100 µM (inactive)
- GI50 (SK-MEL-2): > 100 µM (inactive)
- GI50 (Hs-578T): > 100 µM (inactive)
- GI50 (SNB-75): > 100 µM (inactive)
- GI50 (OVCAR-4): > 100 µM (inactive)
- GI50 (CAKI-1): > 100 µM (inactive)
